{"source": "patent US20190209682A1", "about": "“ISOFORM-SPECIFIC, CONTEXT-PERMISSIVE TGFB1 INHIBITORS AND USE THEREOF” (Scholar Rock, Inc., priority 2017, published 2019)", "key": {"[1]": {"experiment": "Rat toxicity study, Phase II", "type": "in vivo"}, "[2]": {"test_system": "tonic SMAD2/3 signaling in BAL cells", "experiment": "Pharmacodynamics, tonic phospho-SMAD2/3 in BAL cells of healthy rats", "type": "in vivo, rat", "conditions": "single oral gavage dose 100 mg/kg, 2 hours post-dosing", "protocol": "To confirm isoform-selective inhibition of TGFβ1 in vivo, a pharmacodynamics study was conducted in which effects of Ab3 on tonic phospho-SMAD2/3 levels were assessed in bronchoalveolar lavage (BAL) cells collected from healthy rats. It is reported in the literature that under homeostatic conditions, BAL cells predominantly express TGFβ2/3, but little TGFβ1, while the latter becomes preferentially elevated in pathologic conditions.\nHealthy Sprague Dawley rats (approximately 6-8 weeks old, weighing 200-250 g at the beginning of the study; Charles River) were randomized by bodyweight into study groups and dosed as described below.\nAnimals received test antibodies (huNEG-mIgG1, […], or Ab3) on Days 1, 8, and 15 by intraperitoneal injection. Animals are euthanized on Day 16 for BAL and serum collections. One group of control animals was dosed with a single oral gavage (PO) dose of LY2109761 (small molecule ALK5 inhibitor) at 100 mg/kg and was euthanized at 2 hours (+/−20 min) post-dosing for BAL collections.\nTo collect BAL samples, the whole lung was lavaged three times with 5.0 mL of ice-cold Dulbecco's phosphate buffered saline. […]\nPhospho-SMAD2/3 assays were performed by ELISA (Cell Signaling Technologies) according to the manufacturer's instructions. Results were assessed by phosphorylated-to-total SMAD2/3 ratios."}, "[3]": {"experiment": "Rat toxicity study, Phase I", "conditions": "for Aortic root: Hemorrhage, Minimal / Aortic root: Infiltrate, mixed cell, Minimal / Atrium: Hemorrhage, Minimal / Atrium: Hyperplasia, endothelium, Minimal / Atrium: Infiltrate, mixed cell, Minimal / Atrium: Infiltrate, mixed cell, Slight / Coronary artery: Necrosis with inflammation, Slight / Heart valves: Valvulopathy, Minimal / Heart valves: Valvulopathy, Moderate / Heart valves: Valvulopathy, Slight / Myocardium: Degeneration/necrosis, Minimal / Myocardium: Degeneration/necrosis, Slight / Myocardium: Hemorrhage, Slight / Myocardium: Infiltrate, mixed cell, Slight: incidence", "procedure": "Animal body weight was determined at days 1, 3, and 7 of the dosing phase. Animals were sacrificed at day 8 and necropsies performed."}, "[4]": {"conditions": "200 mg/kg oral gavage once daily for five days"}}}
{"smiles": "c1ccc(-c2nn3c(c2-c2ccnc4cc(OCCN5CCOCC5)ccc24)CCC3)nc1", "note": "[LY2109761]", "values": [{"measurement": "Heart weights", "setting": "[1]; 200 mg/kg", "result": "increased heart weights"}, {"measurement": "Liver weights", "setting": "[1]; 200 mg/kg", "result": "Increased liver weights"}, {"measurement": "Thymus weights", "setting": "[1]; 200 mg/kg", "result": "decreased thymus weights"}, {"measurement": "Thyroid weights", "setting": "[1]; 200 mg/kg", "result": "increased thyroid weights"}, {"measurement": "Uterus weights", "setting": "[1]; 200 mg/kg", "result": "decreased uterus weights"}, {"measurement": "Heart findings", "setting": "[1]; [4]", "result": "test article-related heart findings occurred"}, {"measurement": "Microscopic findings in bones, liver, pancreas (artery), thymus, thyroid, female reproductive tissues, mammary gland", "setting": "[1]; [4]", "result": "microscopic findings occurred"}, {"measurement": "Tonic SMAD2/3 signaling (phosphorylated-to-total SMAD2/3 ratio)", "setting": "[2]", "result": "significantly suppressed"}, {"measurement": "Animals found dead at day 7", "setting": "[3]; 200 mg/kg oral gavage once daily, n=5", "result": "Two"}, {"measurement": "Aortic root: Hemorrhage, Minimal", "setting": "[3]; 200 mg/kg/day, n=5", "result": 1}, {"measurement": "Aortic root: Infiltrate, mixed cell, Minimal", "setting": "[3]; 200 mg/kg/day, n=5", "result": 1}, {"measurement": "Atrium: Hemorrhage, Minimal", "setting": "[3]; 200 mg/kg/day, n=5", "result": 1}, {"measurement": "Atrium: Hyperplasia, endothelium, Minimal", "setting": "[3]; 200 mg/kg/day, n=5", "result": 1}, {"measurement": "Atrium: Infiltrate, mixed cell, Minimal", "setting": "[3]; 200 mg/kg/day, n=5", "result": 2}, {"measurement": "Atrium: Infiltrate, mixed cell, Slight", "setting": "[3]; 200 mg/kg/day, n=5", "result": 0}, {"measurement": "Coronary artery: Necrosis with inflammation, Slight", "setting": "[3]; 200 mg/kg/day, n=5", "result": 0}, {"measurement": "Heart valves: Valvulopathy, Minimal", "setting": "[3]; 200 mg/kg/day, n=5", "result": 1}, {"measurement": "Heart valves: Valvulopathy, Moderate", "setting": "[3]; 200 mg/kg/day, n=5", "result": 1}, {"measurement": "Heart valves: Valvulopathy, Slight", "setting": "[3]; 200 mg/kg/day, n=5", "result": 3}, {"measurement": "Myocardium: Degeneration/necrosis, Minimal", "setting": "[3]; 200 mg/kg/day, n=5", "result": 0}, {"measurement": "Myocardium: Degeneration/necrosis, Slight", "setting": "[3]; 200 mg/kg/day, n=5", "result": 1}, {"measurement": "Myocardium: Hemorrhage, Slight", "setting": "[3]; 200 mg/kg/day, n=5", "result": 1}, {"measurement": "Myocardium: Infiltrate, mixed cell, Slight", "setting": "[3]; 200 mg/kg/day, n=5", "result": 0}, {"measurement": "Mortality", "setting": "[3]; 300 mg/kg oral gavage once daily, days 3, 6, or 7, all animals, n=5", "result": "sacrificed in a moribund condition or found dead"}, {"measurement": "Aortic root: Hemorrhage, Minimal", "setting": "[3]; 300 mg/kg/day, n=5", "result": 0}, {"measurement": "Aortic root: Infiltrate, mixed cell, Minimal", "setting": "[3]; 300 mg/kg/day, n=5", "result": 0}, {"measurement": "Atrium: Hemorrhage, Minimal", "setting": "[3]; 300 mg/kg/day, n=5", "result": 2}, {"measurement": "Atrium: Hyperplasia, endothelium, Minimal", "setting": "[3]; 300 mg/kg/day, n=5", "result": 3}, {"measurement": "Atrium: Infiltrate, mixed cell, Minimal", "setting": "[3]; 300 mg/kg/day, n=5", "result": 3}, {"measurement": "Atrium: Infiltrate, mixed cell, Slight", "setting": "[3]; 300 mg/kg/day, n=5", "result": 1}, {"measurement": "Coronary artery: Necrosis with inflammation, Slight", "setting": "[3]; 300 mg/kg/day, n=5", "result": 1}, {"measurement": "Heart valves: Valvulopathy, Minimal", "setting": "[3]; 300 mg/kg/day, n=5", "result": 2}, {"measurement": "Heart valves: Valvulopathy, Moderate", "setting": "[3]; 300 mg/kg/day, n=5", "result": 0}, {"measurement": "Heart valves: Valvulopathy, Slight", "setting": "[3]; 300 mg/kg/day, n=5", "result": 3}, {"measurement": "Myocardium: Degeneration/necrosis, Minimal", "setting": "[3]; 300 mg/kg/day, n=5", "result": 1}, {"measurement": "Myocardium: Degeneration/necrosis, Slight", "setting": "[3]; 300 mg/kg/day, n=5", "result": 1}, {"measurement": "Myocardium: Hemorrhage, Slight", "setting": "[3]; 300 mg/kg/day, n=5", "result": 0}, {"measurement": "Myocardium: Infiltrate, mixed cell, Slight", "setting": "[3]; 300 mg/kg/day, n=5", "result": 1}, {"measurement": "Animals with clear fluid in the thoracic cavity and enlarged thymus (edema)", "setting": "[3]; 300 mg/kg, found dead on Day 3", "result": "one"}, {"measurement": "Animals with abnormally-shaped sternum", "setting": "[3]; each treatment group, 200 mg/kg or 300 mg/kg", "result": "four"}, {"measurement": "Bone findings", "setting": "[3]; sternum, femur and tibia, higher incidence and/or severity with LY2109761", "result": "macroscopic abnormally shaped sternum and microscopic increased thickness of the hypertrophic zone"}, {"measurement": "Heart valve findings, microscopic", "setting": "[3]; ≥200 mg/kg", "result": "valvulopathy"}, {"measurement": "Heart weights", "setting": "[3]; ≥200 mg/kg", "result": "Increased heart weights"}]}
